Experimental data reported in article PMC9537541, “Synthesis and anticancer activity of new benzensulfonamides incorporating s-triazines as cyclic linkers for inhibition of carbonic anhydrase IX” (Scientific Reports, 2022).

Columns and labels:
Renal cancer (UO-31) = assay: NCI single dose SRB screen, UO-31; type: cell-based; conditions: Homo sapiens, UO-31, 48 h, 10^−5 M single dose, read-out: GI% Renal cancer (UO-31)
Description: (§1) Target compounds in series (A) and (B), were submitted to the National Cancer Institute (NCI) Developmental Therapeutic Program (www.dtp.nci.nih.gov), where they have been assessed, in vitro for their anticancer activity. Two series (A) and (B), were screened in a single dose (10 µM) versus full panel composed of 60 cancer cell lines, in accordance with protocol of drug evaluation branch, NCI, Bethesda. Sulforhodamine B (SRB) colorimetric assay was used to determine cell growth and viability,[40].
(§2) Protocol of Drug Evaluation Branch, NCI, Bethesda, was adopted in the antitumor assay. Assessment of cell growth and viability was carried out utilizing SRB assay and 48 h drug exposure protocol as previously reported,[40].

hCA II = target: T1, hCA II (Homo sapiens, UniProt P00918); assay: stopped-flow CO2 hydrase assay, hCA II; type: biochemical; conditions: stopped flow technique, mean from 3 different assays
T1 construct: made in house
Description: (§3) Target compounds of series (A) and (B) were screened as inhibitors concerning the physiologically relevant hCAs; cytosolic isoforms (hCA I and II) in addition to the transmembrane tumor related isoforms (hCA IX and XII) via a stopped-flow assay of carbonic anhydrase catalyzed CO2 hydration. Acetazolamide (AAZ), CA I drug, was also incorporated in the assays as a standard drug. […] Four CA isoforms inhibition activity was measured by assaying CA catalyzed CO2 hydration via an applied photophysics stopped-flow instrument. PRISM 3 and the Cheng-prusoff equation were used to determine the inhibition constant by non-linear least square methods as reported, and represent the mean from three different determination at least. All tested carbonic anhydrase isoforms were recombinant proteins prepared in lab as described earlier,[57].

hCA IX = target: T2, hCA IX (Homo sapiens, UniProt Q16790); assay: stopped-flow CO2 hydrase assay, hCA IX; type: biochemical; conditions: for Selectivity index (SI) I/IX: hCA IX over off-target hCA I; for Selectivity index (SI) II/IX: hCA IX over off-target hCA II; for Ki: stopped flow technique, mean from 3 different assays
T2 construct: made in house
Description: as §3

[1] = tested on: Breast cancer (MDA-MB-468); assay: NCI single dose SRB screen, MDA-MB-468; type: cell-based; conditions: Homo sapiens, MDA-MB-468, 48 h, 10^−5 M single dose, 48 h, SRB; read-out: GI% Breast cancer (MDA-MB-468)
Description: as §1, §2

CNS cancer (SNB-75) = assay: NCI single dose SRB screen, SNB-75; type: cell-based; conditions: Homo sapiens, SNB-75, 48 h, 10^−5 M single dose, read-out: GI% CNS cancer (SNB-75)
Description: as §1, §2

Leukemia (SR) = assay: NCI single dose SRB screen, SR; type: cell-based; conditions: 48 h, 10^−5 M single dose, read-out: GI% Leukemia (SR)
Description: as §1, §2

hCA XII = target: T3, hCA XII (Homo sapiens, UniProt O43570); assay: stopped-flow CO2 hydrase assay, hCA XII; type: biochemical; conditions: for Selectivity index (SI) I/XII: hCA XII over off-target hCA I; for Selectivity index (SI) II/XII: hCA XII over off-target hCA II; for Ki: stopped flow technique, mean from 3 different assays
T3 construct: made in house
T3 sequence (O43570 25-354): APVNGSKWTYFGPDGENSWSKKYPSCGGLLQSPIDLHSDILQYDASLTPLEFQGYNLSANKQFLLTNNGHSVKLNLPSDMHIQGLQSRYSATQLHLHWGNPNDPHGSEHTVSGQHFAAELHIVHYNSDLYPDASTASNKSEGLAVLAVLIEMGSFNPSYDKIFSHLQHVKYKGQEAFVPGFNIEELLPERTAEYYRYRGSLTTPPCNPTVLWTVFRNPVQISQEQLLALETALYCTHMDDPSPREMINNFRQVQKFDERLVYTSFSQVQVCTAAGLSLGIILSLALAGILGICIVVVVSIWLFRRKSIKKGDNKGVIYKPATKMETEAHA
Description: as §3

hCA I = target: T4, hCA I (Homo sapiens, UniProt P00915); assay: stopped-flow CO2 hydrase assay, hCA I; type: biochemical; conditions: stopped flow technique, mean from 3 different assays
T4 construct: made in house
T4 sequence (P00915 whole entry): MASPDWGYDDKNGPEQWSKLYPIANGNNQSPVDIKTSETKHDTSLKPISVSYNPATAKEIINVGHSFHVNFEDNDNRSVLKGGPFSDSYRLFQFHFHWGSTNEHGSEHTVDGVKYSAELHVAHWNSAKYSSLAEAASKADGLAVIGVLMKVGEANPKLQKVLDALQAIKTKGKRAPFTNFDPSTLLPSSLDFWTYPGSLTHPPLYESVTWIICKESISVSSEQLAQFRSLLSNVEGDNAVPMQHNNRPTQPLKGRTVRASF
Description: as §3

Row | Compound | inhibition at 10 µM (Renal cancer (UO-31)) | melting point | Ki (hCA II) | Selectivity index (SI) I/IX (hCA IX) | Selectivity index (SI) II/IX (hCA IX) | Ki (hCA IX) | inhibition at 10 µM [1] | inhibition at 10 µM (CNS cancer (SNB-75)) | inhibition at 10 µM (Leukemia (SR)) | Selectivity index (SI) I/XII (hCA XII) | Selectivity index (SI) II/XII (hCA XII) | Ki (hCA XII) | Ki (hCA I)
1 | NC1=NC2(CCCCC2)NC(Nc2ccc(S(N)(=O)=O)cc2)=N1 [Compound 8b, 4-({4-Amino-1,3,5-triazaspiro[5.5]undeca-2,4-dien-2-yl}amino)benzene-1-sulfonamide] | ≤ 10% | 270 to 272 °C | 3160 nM | 0.2 | 1.4 | 2280 nM | 11% | 21% | 15% | 0.1 | 0.6 | 5430 nM | 354 nM
2 | N#C/C(=C\c1cccc(Cl)c1)c1nc(N)nc(Nc2ccc(S(N)(=O)=O)cc2)n1 [Compound 12h, 4-({4-Amino-6-[(1E)-2-(3-chlorophenyl)-1-cyanoeth-1-en-1-yl]-1,3,5-triazin-2-yl}amino)benzene-1-sulfonamide] | ≤ 10% | 222 to 224 °C | 320 nM | 9.7 | 6.1 | 52.2 nM | 11% | ≤ 10% | 27% | 5.8 | 3.6 | 87.5 nM | 508 nM
3 | Cc1ccc(/C=C(\C#N)c2nc(N)nc(Nc3ccc(S(N)(=O)=O)cc3)n2)cc1 [Compound 12g, 4-({4-Amino-6-[(1E)-1-cyano-2-(4-methylphenyl)eth-1-en-1-yl]-1,3,5-triazin-2-yl}amino)benzene-1-sulfonamide] | 11% | 204 to 206 °C | 697 nM | 0.8 | 3.6 | 195 nM | 11% | 15% | ≤ 10% | 0.07 | 0.3 | 2310 nM | 159 nM
